According to patent publication US11464773B2, “Nutlin-3a for treatment of proliferative vitreoretinopathy” (The Schepens Eye Research Institute, Inc., priority 2012, dated 2022):
“Also recorded” adds a separate entry of the source.

How the values were obtained:
[1] = test system: primary rabbit conjunctival fibroblasts (RCFs); assay: Collagen I contraction assay, RV-induced, RCFs; format: cell-based; conditions: Nutlin-3a 10 μM, gel measured on day 3
Method: (§1) FIG. 1A is a photograph of a western blot showing the impact of Nutlin-3a on RV-mediated signaling events. Primary rabbit conjunctival fibroblasts (RCFs) were pre-treated with either Nutlin-3a (10 μM), or vehicle for 30 min and then exposed to either RV (diluted 1:3 in Dulbecco's Modified Eagle Medium (DMEM)), or DMEM for 2 hr. The resulting cell lysates were subjected to western blot analysis using the indicated antibodies. The numbers are a ratio of p-PDGFRα/PDGFRα, p-Akt/Akt or p53/RasGAP (Ras GTPase) activating protein. […] FIG. 1B is a bar chart showing the impact of Nutlin-3a on RV-mediated contraction. RCFs were subjected to the collagen contraction assay as described above. Nutlin-3a (10 μM) or vehicle was included as indicated. The data were subjected to a paired t test; “*” denoted a statistically significant difference.
(§2) Cells were trypsinized, washed and resuspended in 1.5 mg/ml of neutralized collagen I (INAMED, Fremont, Calif.) (pH 7.2) at a density of 1×10^6 cells/ml for RPEM or 5×10^4 cells/ml for RCFs. The mixture was aliquoted into wells of a 24-well plate that had been preincubated overnight with 5 mg/ml bovine serum albumin in PBS. […] The media were replaced every day, and the gel diameter was measured on day 3. The gel area was calculated using the formula πr2, where r is the radius of the gel.

retina = assay: Retinal toxicity after intravitreal injections in rabbits; format: in vivo; conditions: multiple intravitreal injection of up to 20 micromolar, day 0, 2 and 4; fundus exams to day 14, histology
Method: FIGS. 9A-9B include a series of photographs showing epiretinal membranes from rabbits subjected to the PVR protocol. Rabbits that underwent a gas vitrectomy were intravitreally injected with the indicated concentration of Nutlin-3a on day 0, 2 and 4. The rabbits underwent a fundus examination on day 1, 3, 5, 7 and 14. Following the last fundus exam rabbits were euthanized, eyes were enucleated and fixed in 10% formalin. Sections were prepared, stained with hematoxylin and eosin, and then photographed. Representative photos of a Nutlin-3a (FIG. 9A) and vehicle (FIG. 9B) injected eye are presented. Arrowheads and arrows point to the retina and epiretinal membrane, respectively; scale bar: 50 μm. The lack of the retinal pigment epithelial cell layer is an artifact related to processing of the tissue.

[2] = test system: primary rabbit conjunctival fibroblasts (RCFs); assay: Maximum tolerated dose in cultured RCFs; format: cell-based; conditions: RCFs in DMEM+5% FBS, medium replaced every 24 hours, day 3
Method: FIGS. 8A-8B include a series of photographs showing the minimum effective dose and maximum tolerated dose of Nutlin-3a. FIG. 8A is a series of photomicrographs of western blots showing RCFs pretreated with the indicated concentrations of Nutlin-3a for 30 min, and then exposed to RV (diluted 1:3 in DMEM) for 2 hours. Cells were lysed and resulting lysates were subjected to western blot analysis using the indicated antibodies. The data shown are representative of three independent experiments. FIG. 8B is a series of photographs showing RCFs grown to near confluence in DMEM+10% FBS, the medium was replaced with DMEM+5% FBS+the indicated concentration of Nutlin-3a. The medium was replaced every 24 hours, and the photographs were taken on day 3. The data shown are representative of two independent experiments. The scale bar is 50 μm.

p53 [3] = assay: p53 immunohistochemistry of epiretinal membranes from PVR rabbits; format: in vivo, rabbit; conditions: day 28, immunohistochemistry
Method: (§3) FIGS. 2A-2B include a dot plot and a series of photomicrographs showing that Nutlin -3a prevented retinal detachment and elevated p53 in epiretinal membranes. FIG. 2A is a dot plot illustrating the impact of Nutlin-3a on experimental PVR. RCFs were used to induce PVR as described below. The indicated rabbits received no additional injections (none) or 0.1 cc injections of either vehicle, or Nutlin-3a (20 μM) on day 0, 2 and 4. The data were subjected to an unpaired t test or one way Analysis of Variance (ANOVA) test; “*” denoted a statistically significant difference. FIG. 2B is a series of photographs showing that Nutlin-3a enhanced expression of p53 in epiretinal membranes. At the end of the experiment (day 28), the eyes were enucleated, and paraffin sections of whole eyes were subjected to p53 immunohistochemistry. The arrows point to the epiretinal membrane (the arrowheads denote the retina and the brown color indicates p53). The left and right panels are from a Nutlin-3a injected animal, whereas the middle panel is from a rabbit treated with vehicle. The left and middle panels were stained with the p53 antibody, whereas the right panel was stained with non-immune IgG. The scale bar is 50 μm.
Rabbit eyeballs were fixed in 10% formalin for 48 hr and embedded in paraffin after dehydration. […]

[4] = test system: RPE cells isolated from a human PVR membrane; assay: Collagen contraction assay, HV-stimulated, RPE cells from a human PVR membrane; format: cell-based; conditions: RPE cells from human epiretinal membrane, HV diluted 1:3
Text: (§4) FIGS. 7A-7B include a photograph of a western blot and a bar chart showing p53 attenuated human vitreous humor (HV)-driven collagen gel contraction. FIG. 7A is a photograph of a western blot showing the impact of Nutlin-3a on HV-mediated signaling events. Methods were the same as FIG. 3A, but the RPE cells from a human patient epiretinal membrane were used in place of RCF, and HV (a pool of vitreous from 5 PVR patients diluted 1:3 in DMEM) was used in place of RV. The data presented are representative of three independent experiments. FIG. 7B is a bar chart showing the impact of Nutlin-3a on HV-mediated contraction. This experiments were the same as FIG. 3B with the modification noted in FIG. 7A. The data were subjected to a paired t test. “*” denoted a statistically significant difference. The data shown are representative of three independent experiments.
RPEM cells are RPE cells derived from a human epiretinal membrane, as previously described (Wong C A et al., 2002 Can J Ophthalmol, 37:211-220). […]
as §2, with “RCFs.” for “RCFs. The mixture was aliquoted into wells of a 24-well plate that had been preincubated overnight with 5 mg/ml bovine serum albumin in PBS.”

[5] = test system: upstream signaling events; assay: Western blot: HV-mediated upstream signaling events in RPE cells from a human PVR membrane; format: cell-based; conditions: RPE cells from human epiretinal membrane, HV diluted 1:3
Text: as §4
(§5) RPEM cells are RPE cells derived from a human epiretinal membrane, as previously described (Wong C A et al., 2002 Can J Ophthalmol, 37:211-220). Primary rabbit conjunctival fibroblasts (RCFs) were obtained and cultured as described previously (Ikuno Y et al., 2002 Invest Ophthalmol Vis Sci, 43:2406-2411). […]
(§6) Cells were grown to 90% confluence in serum-containing medium, and then incubated for 24 hr in medium without serum. […] Signal intensity was determined by densitometry and analyzed with the Quantity One (Bio-Rad) software.

p53 [6] = assay: Western blot: HV-mediated fall in the level of p53 in RPE cells from a human PVR membrane; format: cell-based; conditions: RPE cells from human epiretinal membrane, HV pool of 5 PVR patients diluted 1:3
Text: as §4, §5, §6

[7] = test system: proliferative vitreoretinopathy (PVR); assay: Rabbit model for PVR (Fastenberg scale); format: in vivo, Dutch Belted rabbits
Method: as §3
PVR was induced in Dutch Belted rabbits, purchased from Covance (Denver, Pa.), as previously described (Lei H et al., 2009 Invest Ophthalmol Vis Sci, 50:3394-3403). Briefly, a gas vitrectomy was performed by injecting 0.1 ml of perfluoropropane (C3F8) (Alcon, Fort Worth, Tex.) into vitreous. One week later, the right eye of rabbits was injected in one of two ways. For the experiment injecting RCFs expressing shRNAs, 0.1 ml of DMEM containing 1×10^5 RCFs that were modified as outlined in the legend were injected along with 0.1 ml rabbit platelet-rich plasma. For the Nutlin-3a experiment, all rabbits were injected with 0.1 ml of DMEM containing 1×10^5 unmodified RCFs, 0.1 ml rabbit platelet rich plasma and either not injected a third time, or injected with vehicle, or 0.1 ml of 200 μM Nutlin-3a. The vehicle or Nutlin-3a injection was repeated on day 3 and 5. The retinal status was evaluated with an indirect ophthalmoscope fitted with a +30 D fundus lens on day 1, 3, 5, 7, 14, 21 and 28. PVR was graded according to the Fastenberg scale of classification 41: stage 0, no disease; stage 1, epiretinal membrane; stage 2, vitreoretinal traction without retinal detachment; stage 3, localized retinal detachment (1-2 quadrants); stage 4, extensive retinal detachment (2-4 quadrants without complete detachment); stage 5, complete retinal detachment. On day 28, animals were sacrificed, and eyes were enucleated and frozen at −80° C.

PDGFRα = assay: Western blot: RV-induced phosphorylation of PDGFRα in RCFs; format: cell-based, rabbit; conditions: Nutlin-3a 10 μM, RV 2 hr
Method: as §1
(§7) Cells were grown to 90% confluence in serum-containing medium, and then incubated for 24 hr in medium without serum. Cells were stimulated (as detailed for each experiment), washed twice with ice-cold phosphate buffered saline (PBS), and lysed in extraction buffer (10 mM Tris-HCl, pH 7.4, 5 mM EDTA, 50 mM NaCl, 50 mM NaF, 1% Triton X-100, 20 μg/ml aprotinin, 2 mM Na3VO4, 1 mM phenylmethylsulfonyl fluoride). […] Signal intensity was determined by densitometry and analyzed with the Quantity One (Bio-Rad) software.

Akt = assay: Western blot: RV-induced activation of Akt in RCFs; format: cell-based, rabbit; conditions: Nutlin-3a 10 μM, RV 2 hr
Method: as §1, §7

p53 [8] = assay: Western blot: RV-mediated decline in the level of p53 in RCFs; format: cell-based, rabbit
Method: as §1
FIGS. 8A-8B include a series of photographs showing the minimum effective dose and maximum tolerated dose of Nutlin-3a. FIG. 8A is a series of photomicrographs of western blots showing RCFs pretreated with the indicated concentrations of Nutlin-3a for 30 min, and then exposed to RV (diluted 1:3 in DMEM) for 2 hours. […]
as §6

Fβ cells = assay: Collagen contraction assay, RV-induced, Fβ cells; format: cell-based, mouse; conditions: Imatinib 10 μM, day 3
Text: (§8) FIGS. 10A-10B include a series of bar graphs showing that inhibiting PDGFRα kinase activity blocked RV-induced collagen contraction. The indicated RCFs (50,000 cells/ml) (FIG. 10A) or F cells (1 million cells/ml) (FIG. 10B) were subjected to a collagen contraction assays as described below. […] The panels below the bar graphs show photographs of representative gels; the data presented are representative of 3 independent experiments. The data were subjected to a paired t test; “*” denoted a statistically significant difference.
(§9) RPEM cells are RPE cells derived from a human epiretinal membrane, as previously described (Wong C A et al., 2002 Can J Ophthalmol, 37:211-220). Primary rabbit conjunctival fibroblasts (RCFs) were obtained and cultured as described previously (Ikuno Y et al., 2002 Invest Ophthalmol Vis Sci, 43:2406-2411). RCFs that stably expressed the shRNA targeting vector specific for GFP, PDGFRα, p53 or PDGFRα and p53 were designated sh GFP, sh PDGFRα sh p53 and sh PDGFRα/p53, respectively.
as §2, with “RCFs.” for “RCFs. The mixture was aliquoted into wells of a 24-well plate that had been preincubated overnight with 5 mg/ml bovine serum albumin in PBS.”

Fα cells = assay: Collagen contraction assay, RV-induced, Fα cells; format: cell-based, mouse; conditions: Imatinib 10 μM, day 3
Text: as §8, §9
as §2, with “RCFs.” for “RCFs. The mixture was aliquoted into wells of a 24-well plate that had been preincubated overnight with 5 mg/ml bovine serum albumin in PBS.”

sh GFP cells = assay: Collagen contraction assay, RV-induced, sh GFP RCFs; format: cell-based, rabbit; conditions: Imatinib 10 μM, day 3
Text: as §8
Cells were trypsinized, washed and resuspended in 1.5 mg/ml of neutralized collagen I (INAMED, Fremont, Calif.) (pH 7.2) at a density of 1×10^6 cells/ml for RPEM or 5×10^4 cells/ml for RCFs. The mixture was aliquoted into wells of a 24-well plate that had been preincubated overnight with 5 mg/ml bovine serum albumin in PBS. The collagen solution was solidified by incubating at 37° C. for 90 min, and overlaid with medium containing the desired agents. The media were replaced every day, and the gel diameter was measured on day 3. The gel area was calculated using the formula πr2, where r is the radius of the gel.

## COc1ccc(C2=N[C@@H](c3ccc(Cl)cc3)[C@@H](c3ccc(Cl)cc3)N2C(=O)N2CCNC(=O)C2)c(OC(C)C)c1 (single isomer, unassigned) [Nutlin-3a]
[1]
  RV-mediated contraction of collagen gels: effectively blocked
retina
  overt signs of retinal toxicity: did not produce overt signs of retinal toxicity
[2]
  maximum tolerated dose: 30 µM
p53 [3]
  p53 level in epiretinal membranes versus vehicle-injected controls: higher
[4]
  HV-stimulated contraction of RPE-containing collagen gels: inhibited
[5]
  upstream signaling events in HV-treated cells: without impacting upstream signaling events
p53 [6]
  HV-induced fall in the level of p53: prevented the precipitous fall
[7]; by day 28, intravitreal Nutlin-3a injections
  animals that succumbed to even partial retinal detachment (stage 3 or 4): 0%
[7]; intravitreal Nutlin-3a injections, to day 28
  formation of epiretinal membranes (stage 1 and 2): slowed formation of membranes; also recorded: did form membranes
[7]; series of intravitreal injections
  retinal detachment: completely prevented
[7]; series of intravitreal injections, end of experiment (day 28)
  rabbits that developed vitreal traction (stage 2): 50%
PDGFRα
  RV-induced phosphorylation of PDGFRα: no effect
Akt
  RV-induced activation of Akt: no effect
p53 [8]; RCFs pre-treated with Nutlin-3a 10 μM 30 min, then RV (1:3 in DMEM) 2 hr
  RV-mediated decline in the level of p53: effectively blocked
p53 [8]; RCFs pretreated 30 min, RV (1:3) 2 hours
  minimum dose to prevent the RV-induced reduction of p53: 2 µM

## Cc1ccc(NC(=O)c2ccc(CN3CCN(C)CC3)cc2)cc1Nc1nccc(-c2cccnc2)n1 [Imatinib]
Fβ cells
  RV-induced contraction in cells expressing PDGFRβ (Fβ): did not improve RV-induced contraction or generate sensitivity to Imatinib
Fα cells
  RV-stimulated contraction in cells expressing PDGFRα (Fα): erased
Sh GFP cells
  RV-induced contraction in sh GFP cells: completely blocked
